Consider 14 compounds from patent US12552758B2, “Inhibitors of MLH1 and/or PMS2 for cancer treatment” (NeoPhore Limited, priority 2020, dated 2026).

Test [1] concerns the target T1, recombinant N-terminal MLH1 (residues 15-340) (Homo sapiens (Human), UniProt P40692). The experiment in a line: Fluorescence polarisation assay for MLH1 (protocol for Examples 64, 76, 90 and 95). The settings on record: FP probe displacement, 100 nM N-terminal MLH1, 5 nM probe compound, non-binding surface plate, read immediately. The procedure: Fluorescence Polarisation Assay for MLH1 (Protocol for Examples 64, 76, 90 and 95)
Test compounds, as 10 mM DMSO stocks, were dispensed into a 384-well Low Flange Black Flat Bottom Polystyrene Non-binding Surface plate (Corning®, item number 3575) using a Labcyte Echo acoustic liquid handler. Test compounds were added to wells in columns 1-22 whilst DMSO was added to wells in columns 23 and 24 in order to normalise the plate. 20 μL of a 2× solution (200 nM) of recombinant N-terminal MLH1 (residues 15-340) in assay buffer (25 mM HEPES, pH 7.5, 250 mM NaCl, 10 mM MgCl2, 0.01% Triton X-100, 5 mM dithiothreitol) was added to all wells in columns 1-23 and 20 μL assay buffer was added to all wells in column 24 using an E1-ClipTip pipette (ThermoFisher). Plates were centrifuged for 1 minute at 250×g and were incubated at room temperature for 30 minutes prior to the addition of 20 μL of 2×(10 nM) 5-((5-(4-((2-(2,4-dihydroxy-5-isopropylbenzoyl)isoindolin-5-yl)methyl)piperazin-1-yl)pentyl)carbamoyl)-2-(6-(dimethylamino)-3-(dimethyliminio)-3H-xanthen-9-yl)benzoate in assay buffer (prepared from a 1 mM DMSO stock) with an E1-ClipTip pipette (ThermoFisher). The final concentration of N-terminal MLH1 was 100 nM and the final concentration of the probe compound was 5 nM. Compound plates were centrifuged for 1 minute at 250 xg for 1 minute and immediately read on a PheraStar FSX (fitted with 384-well aperture spoon and 590 675 675 FP optic module). The gain and focus were adjusted before each plate was read so that the polarisation of a no enzyme control (column 24) was equal to 35 mP. Data were normalised against the no inhibitor controls (column 23) and no enzyme controls (column 24).

Test [2] addresses recombinant N-terminal PMS2 (residues 1-365) (Homo sapiens (Human), UniProt P54278). The experiment in a line: Fluorescence polarisation assay for PMS2. The format is binding. The following applies: FP probe displacement; 10 nM N-terminal PMS2, 5 nM probe compound, read after 1 hour. In outline: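 Competitive fluorescence polarisation with 10 nM N-terminal PMS2 and 5 nM final rhodamine-labelled resorcinol probe. Compound is pre-incubated with protein 30 min at room temperature, then probe added and read after 1 h. Values are normalised to no-inhibitor and no-enzyme controls.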
In general terms: Fluorescence polarisation rises when a labelled molecule tumbles more slowly, as on binding a larger partner.

Test [3] has as its target T1, recombinant N-terminal MLH1 (residues 15-340). The experiment in a line: Fluorescence polarisation assay for MLH1 (protocol for all Examples except Examples 64, 76, 90 and 95). It counts as binding. The settings on record: FP probe displacement; 100 nM N-terminal MLH1, 5 nM probe compound, read after 15 minutes; all Examples except 64, 76, 90 and 95. In outline:
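N-terminal MLH1 (100 nM final) preincubated with compounds 30 min at room temperature, then rhodamine-labelled resorcinol probe added (5 nM final); fluorescence polarisation read after 15 min. Signal normalised to no-inhibitor and no-enzyme controls; serial dilutions for potency, single concentration for screening.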

T1 sequence (P40692 15-340): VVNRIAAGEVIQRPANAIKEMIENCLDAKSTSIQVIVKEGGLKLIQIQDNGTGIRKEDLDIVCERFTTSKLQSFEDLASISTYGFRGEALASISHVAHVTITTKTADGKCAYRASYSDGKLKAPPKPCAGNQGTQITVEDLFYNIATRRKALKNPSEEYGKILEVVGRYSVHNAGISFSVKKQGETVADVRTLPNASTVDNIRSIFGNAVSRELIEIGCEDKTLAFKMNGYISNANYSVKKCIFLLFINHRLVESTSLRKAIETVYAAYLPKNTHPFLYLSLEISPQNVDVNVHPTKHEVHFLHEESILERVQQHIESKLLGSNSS
Chain of recombinant N-terminal PMS2 (residues 1-365) (P54278 1-365): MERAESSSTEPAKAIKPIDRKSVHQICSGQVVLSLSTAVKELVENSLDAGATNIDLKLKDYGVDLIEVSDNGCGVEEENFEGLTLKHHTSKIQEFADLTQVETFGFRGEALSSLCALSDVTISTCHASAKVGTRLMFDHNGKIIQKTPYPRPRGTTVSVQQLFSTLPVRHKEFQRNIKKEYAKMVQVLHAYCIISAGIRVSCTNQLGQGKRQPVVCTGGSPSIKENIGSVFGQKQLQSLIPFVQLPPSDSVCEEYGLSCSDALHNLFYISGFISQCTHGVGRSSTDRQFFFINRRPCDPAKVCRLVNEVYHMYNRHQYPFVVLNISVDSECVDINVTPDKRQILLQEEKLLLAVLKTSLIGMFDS

For orientation: IC50 means the point on the concentration scale where inhibition reaches its midpoint. Regarding `Cc1c(O)cc(O)c(C(=O)N2Cc3ccc(CN4CCN(C)CC4)cc3C2)c1OCC1CC1` [Example 95, (2-(Cyclopropylmethoxy)-4,6-dihydroxy-3-methylphenyl)(5-((4-methylpiperazin-1-yl)methyl)isoindolin-2-yl)methanone], the IC50 was greater than 10 µM in test [1] and less than 1 µM in test [2].
The matching figures for `Cc1c(O)cc(O)c(C(=O)N2Cc3ccccc3C[C@@H]2CO)c1OCc1ccccc1` [Example 64, (R)-(2-(benzyloxy)-4,6-dihydroxy-3-methylphenyl)(3-(hydroxymethyl)-3,4-dihydroisoquinolin-2(1H)-yl)methanone]: greater than 10 µM and 1 to 10 µM.
The matching figures for `Cc1c(O)cc(O)c(C(=O)N2Cc3cccc(OCc4cncnc4)c3C2)c1OCc1ccccc1` [Example 90, (2-(Benzyloxy)-4,6-dihydroxy-3-methylphenyl)(4-(pyrimidin-5-ylmethoxy)isoindolin-2-yl)methanone]: greater than 10 µM and less than 1 µM.
For `Cc1c(O)cc(O)c(C(=O)N2Cc3cccc(CN4CCOCC4)c3C2)c1OCc1ccccc1` [Example 76, (2-(Benzyloxy)-4,6-dihydroxy-3-methylphenyl)(4-(morpholinomethyl)isoindolin-2-yl)methanone] the same measures were greater than 10 µM and 1 to 10 µM.
Regarding `Cc1c(O)cc(O)c(C(=O)N2CCc3ccncc3C2)c1OCc1ccccc1` [Example 42, (2-benzyloxy-4,6-dihydroxy-3-methyl-phenyl)-(3,4-dihydro-1H-2,7-naphthyridin-2-yl)methanone], the half-maximal inhibitory concentration (IC50) was greater than 10 µM in test [3] and 1 to 10 µM in test [2].
Take `O=C(c1c(O)cc(O)cc1OCc1ccncn1)N1CCCC1` [Example 20, [2,4-dihydroxy-6-(pyrimidin-4-ylmethoxy)phenyl]-pyrrolidin-1-yl-methanone]: the IC50 in test [3] and in test [2] was greater than 10 µM in each case.
Regarding `O=C(c1c(O)cc(O)cc1OCc1ccccc1)N1CC[C@@H](O)C1` [Example 7, (2-benzyloxy-4,6-dihydroxy-phenyl)-[(3R)-3-hydroxypyrrolidin-1-yl]methanone], the half-maximal inhibitory concentration (IC50) in test [3] and in test [2] was greater than 10 µM throughout.
On to `CC(Oc1cc(O)cc(O)c1C(=O)N1Cc2ccccc2C1)c1ccccc1` (stereo not shown) [Example 27, [2,4-dihydroxy-6-(1-phenylethoxy)phenyl]-isoindolin-2-yl-methanone], for which the figures for the concentration for half-maximal inhibition (IC50) in test [3] and in test [2] were 1 to 10 µM and less than 1 µM, respectively.
Turning to `O=C(c1c(O)cc(O)cc1OCc1ccccn1)N1Cc2ccccc2C1` [Example 37, [2,4-dihydroxy-6-(2-pyridylmethoxy)phenyl]-isoindolin-2-yl-methanone], the IC50 in test [3] and in test [2] was 1 to 10 µM throughout.
Take `Cc1c(O)cc(O)c(C(=O)N2CCCc3ccccc32)c1OCc1ccccc1` [Example 72, (2-(Benzyloxy)-4,6-dihydroxy-3-methylphenyl)(3,4-dihydroquinolin-1(2H)-yl)methanone]: the IC50 in test [3] was greater than 10 µM; in test [2] it was 1 to 10 µM.
The matching figures for `COc1ccc2c(c1)CN(C(=O)c1c(O)cc(O)c(C)c1OCc1ccccc1)CC2` [Example 52, (2-(benzyloxy)-4,6-dihydroxy-3-methylphenyl)(7-methoxy-3,4-dihydroisoquinolin-2(1H)-yl)methanone]: greater than 10 µM and less than 1 µM.
On to `Cc1c(O)cc(O)c(C(=O)N2Cc3ccccc3C2CO)c1OCc1ccccc1` (stereo not shown) [Example 63, (2-(benzyloxy)-4,6-dihydroxy-3-methylphenyl)(1-(hydroxymethyl)isoindolin-2-yl)methanone], for which the figures for the half-maximal inhibitory concentration (IC50) in test [3] and in test [2] were greater than 10 µM and 1 to 10 µM, respectively.
As for `O=C(c1c(O)cc(O)cc1OCc1ccccc1)N1CCCC1` [Example 3, (2-benzyloxy-4,6-dihydroxy-phenyl)-pyrrolidin-1-yl-methanone], the IC50 in test [3] and in test [2] was greater than 10 µM in each case.
On to `Cc1c(O)cc(O)c(C(=O)N2CCCC2)c1OCc1ccccc1` [Example 10, (2-benzyloxy-4,6-dihydroxy-3-methyl-phenyl)-pyrrolidin-1-yl-methanone], for which the IC50 in test [3] was greater than 10 µM; in test [2], 1 to 10 µM.
